Source: the NIST ThermoML archive (doi:10.1016/j.jct.2012.04.029)

Details: Liquid, Ebulliometric method (Recirculating still)

COCC(C)O (stereo not drawn) [1-methoxy-2-propanol]
Details	vapor or sublimation pressure [kPa]
342.3 K	15
352.5 K	23.5
360.1 K	32
367.4 K	42.1
371.6 K	49.1
376 K	57.6
380 K	66.1
383.5 K	74.6
386.9 K	83.3
390.1 K	92.6
392.8 K	99.9
397.9 K	116.9
400 K	125.5
402.2 K	134
404.3 K	142.5
406.3 K	151
408.2 K	159.5
410 K	168
411.8 K	176.5

COCCO [2-methoxyethan-1-ol]
Details	vapor or sublimation pressure [kPa]
346.4 K	15
356.9 K	23.5
364.7 K	32
376 K	49
380.6 K	57.5
384.5 K	66
388.1 K	74.5
391.3 K	83
394.4 K	91.5
397.2 K	100
400.1 K	108.5
402.6 K	117
404.9 K	125.5
407 K	134
409.1 K	142.5
411.1 K	151
412.9 K	159.5
414.7 K	168
416.6 K	176.5
